Measurements as given in patent US20240058387A1, “CULTURE MEDIUM COMPOSITION FOR AMPLIFYING AND MAINTAINING SELF-RENEWAL CAPACITY AND DIFFERENTIATION POTENTIAL OF HSCS AND APPLICATION THEREOF” (EDIGENE (GUANGZHOU) INC., priority 2020, published 2024).

System: mobilized peripheral blood-derived CD34+ cells
Assay: Cell counting: absolute number of marker-positive cells, comparison with UM171 and SR1
Format: cell-based, human
Settings: FIG. 5B; 8 days; AG1296 at 1 μM; UM171 concentration not given
Description: According to the solubility and required solvent indicated in the instructions of the small molecule inhibitor (see Table 1 for the Cat. number of the small molecule inhibitor), the preparation of the small molecule inhibitor stock solution was carried out. Next, the hematopoietic stem cell medium was prepared: SFEM II medium (stem cell, Cat. number: 09655)+50 ng/ml growth factor Flt-3L (PeProtech, Cat. number: 300-100UG)+50 ng/ml growth factor SCF (PeProtech, Cat. number): 300-07-100UG)+50 ng/ml growth factor TPO (PeProtech, Cat. number: 300-18-100UG)+10 ng/ml interleukin IL-6 (PeProtech, Cat. number: 200-06-20UG)+1% bispecific antibody (HyClone, Cat. No.: sv30010). According to the set concentration gradient of the small molecule inhibitor, the stock solution and the basal medium were used to prepare the medium containing different concentrations of the small molecule inhibitor.
First, the prepared medium was added to a 24-well plate (Corning, Cat. number: 3473), 950 μl per well, and placing it in a carbon dioxide incubator (Thermo, model: 3111) to preheat; resuspending the spare umbilical cord Blood-derived HSCs of Example 1 with SFEM 11+50 ng/ml Flt-3L+50 ng/ml SCF+50 ng/ml TPO+10 ng/ml IL-6+1% bispecific antibody, calculating the medium volume to be added according to 50 μl cell suspension per well and 2*10^5/m1 cell density per well. For example, when the final volume of the cell culture solution per well was 1 ml, the total number of cells per well was 2*10^5 cells calculated according to the cell density per well, and the density of the […] of cell suspension supplemented to each well is 4*10^6/ml. The density of the spare HSCs of Example 1 was adjusted to the calculated density of the cell suspension, and adding it; taking out the preheated medium from the incubator, adding 50 μl of the cell suspension to each well, and after mixing, using the microscope (OLYMPUS, model: CKX53) to observe the cells state, and then putting it into an incubator for culturing.
On the mobilized peripheral blood-derived CD34+ cells sorted in Example 1, the screened-out inhibitor AG1296 and literature-reported (Fares I, et al. Science. 2014; Boitano A E, et al. Science. 2010) inhibitors UM171 and SR1 were compared in the same way as Example 2. Eight days after the induction of the small molecule inhibitor, the expression of LT-HSCs cell surface markers (CD34+CD45+CD90+CD45RA−CD38−) was detected by flow cytometry using the same method as in Example 3. After 8 days of culture, 20 μL of cell suspension was taken into a cell counter (Nexcelom, model: Cellometer K2) and counted, and the absolute numbers of the final CD34+ cells and LT-HSCs on […] were calculated (absolute number of cells=total number of cells*stemness ratio).

SMILES: Cn1nnc(-c2ccc3c(c2)[nH]c2nc(Cc4ccccc4)nc(NC4CCC(N)CC4)c23)n1 (stereo not shown) [UM171]
- absolute number of CD34+ cells: best effect
